Measured values: PubChem BioAssay (NCI)
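Step 1: Grow cells in 96-well plates. Step 2: Expose to compound for 48 hours at 5 concentrations. Step 3: Interpolate endpoints linearly; if unreached, use highest concentration. GI50: concentration for 50% inhibition of growth. TGI is the concentration that stops growth completely.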

Assays:
Assay in all cases: NCI anticancer screen, dose series, 48 h
SK-MEL-5 melanoma = tested on: SK-MEL-5 melanoma
786-0 renal = tested on: 786-0 renal
U251 CNS = tested on: U251 CNS
OVCAR-8 ovarian = tested on: OVCAR-8 ovarian
TK-10 renal = tested on: TK-10 renal
M14 melanoma = tested on: M14 melanoma
OVCAR-5 ovarian = tested on: OVCAR-5 ovarian
UO-31 renal = tested on: UO-31 renal
UACC-62 melanoma = tested on: UACC-62 melanoma
MDA-MB-231 breast = tested on: MDA-MB-231 breast

| SMILES | TGI (SK-MEL-5 melanoma) [µM] | TGI (786-0 renal) [µM] | TGI (U251 CNS) [µM] | TGI (OVCAR-8 ovarian) [µM] | TGI (TK-10 renal) [µM] | TGI (M14 melanoma) [µM] | TGI (OVCAR-5 ovarian) [µM] | TGI (UO-31 renal) [µM] | TGI (UACC-62 melanoma) [µM] | GI50 (SK-MEL-5 melanoma) [µM] | GI50 (786-0 renal) [µM] | GI50 (U251 CNS) [µM] | GI50 (OVCAR-8 ovarian) [µM] | GI50 (M14 melanoma) [µM] | GI50 (OVCAR-5 ovarian) [µM] | GI50 (UO-31 renal) [µM] | GI50 (UACC-62 melanoma) [µM] | GI50 (MDA-MB-231 breast) [µM] | TGI (MDA-MB-231 breast) [µM] | GI50 (TK-10 renal) [µM] |
| --- | --- | --- | --- | --- | --- | --- | --- | --- | --- | --- | --- | --- | --- | --- | --- | --- | --- | --- | --- | --- |
| CCOC(=O)N1C/C(=C\c2ccc(N(C)C)cc2)C(=O)/C(=C/c2ccc(N(C)C)cc2)C1 | > 100 | > 100 | > 100 | > 100 | > 100 | > 100 | > 100 | > 100 | > 100 |  |  |  |  |  |  |  |  |  |  |  |
| Nc1ncnc2c1ncn2C1(CO)OC(CO)C(O)C1O (stereo unspecified) | > 100 | > 100 | > 100 |  | > 100 | > 100 | > 100 |  |  |  |  |  |  |  |  |  |  |  |  |  |
| CC[P+](C)(C)CC | > 100 | > 100 | > 100 | > 100 | > 100 | > 100 | > 100 | > 100 | > 100 |  |  |  |  |  |  |  |  |  |  |  |
| Cc1ccc(C)c(NC(=O)C(=O)C(C2C(C)CC(=O)C2CC(=O)O)[N+](=O)[O-])c1 (stereo unspecified) | > 100 | > 100 | > 100 |  | > 100 | > 100 | > 100 | > 100 | > 100 |  |  |  |  |  |  |  |  |  |  |  |
| O=C(N/N=C/c1coc2ccc(Cl)cc2c1=O)c1cc(O)c(O)c(O)c1 | 34.2 | 66 | 57.2 | > 100 |  | 47 | 74.9 | > 100 | 40.1 | 11.6 | 23.4 | 22.2 | 18.6 | 19.3 | 24.6 | 40 | 19.8 | 19.3 | 45 |  |
| O=S(=O)([O-])c1ccc(C=Nc2ccccc2)c([O-])c1.O=S(=O)([O-])c1ccc(C=Nc2ccccc2)c([O-])c1.[Co+2] |  | > 100 |  | > 100 | > 100 | > 100 | > 100 | > 100 | > 100 |  | 94.7 |  | 50.6 | 6.5 | 16.1 | 21 | 3.96 |  |  | > 100 |
| CCCOC(=O)C1C(c2ccc(OC)cc2)NC(c2ccc(OC)cc2)C(C(=O)OCCC)S1(=O)=O (stereo unspecified) | > 100 | > 100 | > 100 | > 100 | > 100 | > 100 | > 100 | > 100 | > 100 | > 100 | > 100 | > 100 | > 100 | > 100 | > 100 | > 100 | > 100 |  |  | > 100 |
| COc1ccc(C)cc1-c1ccc(-c2cc(C)ccc2OC)o1 |  | > 100 | > 100 | > 100 | > 100 | > 100 | > 100 | > 100 | > 100 |  |  |  |  |  |  |  |  |  |  |  |
| COc1ccc(C2=NC(CO)[C@H](c3ccccc3)O2)cc1OC (stereo partly specified) | > 100 | > 100 |  | > 100 |  | > 100 | > 100 | > 100 | > 100 |  |  |  |  |  |  |  |  |  |  |  |
| COC(=O)C(C(=O)C(=O)Nc1nc2ccc(OC)cc2s1)c1cnc2ccccc2n1 (stereo unspecified) | > 100 | > 100 | > 100 |  | > 100 | > 100 | > 100 | > 100 | > 100 |  |  |  |  |  |  |  |  |  |  |  |
| O=S(=O)(c1ccccc1)C1(C2(S(=O)(=O)c3ccccc3)CCN=N2)CCN=N1 (stereo unspecified) |  | > 100 | > 100 | > 100 | > 100 | > 100 | > 100 | > 100 |  |  |  |  |  |  |  |  |  |  |  |  |
| NNC(=O)C(=O)N/N=C1\CCCC1C(=O)CCC(=O)Nc1cccc(Cl)c1 (stereo unspecified) | > 100 | > 100 | > 100 | > 100 | > 100 | > 100 | > 100 | > 100 | > 100 |  |  |  |  |  |  |  |  |  |  |  |
| O=C(/C=C/c1cccc(Cl)c1)c1ccccc1 | 26.3 | 22.8 | 7.89 | 11.4 |  | 13.5 | 24.5 | 21.9 | 27.9 | 13.2 | 10.6 | 2.67 | 3.32 | 3.78 | 11.2 | 6.55 | 13.9 | 12.2 | 28.5 |  |
| Cc1c(C(=O)Nc2ccc(Oc3ccnc4cc(OCC(C)(C)O)ccc34)c(F)c2)c(=O)n(-c2ccccc2)n1C |  | > 100 | > 100 |  | > 100 | > 100 |  |  |  |  | 5.2 | 8.86 |  | 2.47 |  |  |  |  |  | 9.9 |
| CCOC(=O)C(c1ccsc1)P(=O)(OCC)OCC (stereo unspecified) | 29.4 | 31.7 | 45.4 | 43.3 | 41 | 26.3 | 37.7 | 28.4 | 23.9 |  |  |  |  |  |  |  |  |  |  |  |
